Measurements from publication PMC5461267, “Membrane Guanylate Cyclase catalytic Subdomain: Structure and Linkage with Calcium Sensors and Bicarbonate” (Frontiers in Molecular Neuroscience, 2017).
Numbering of substitutions follows the chain as printed.

Legend:
[1] = biological target: T1, ROS-GC1 (rod outer segment guanylate cyclase type 1), full-length recombinant (Bos taurus, UniProt P55203, A1013R/N1009A); assay: biochemical
T1 construct: gene GUCY2D
T1 sequence (P55203 57-1110 N1009A/A1013R): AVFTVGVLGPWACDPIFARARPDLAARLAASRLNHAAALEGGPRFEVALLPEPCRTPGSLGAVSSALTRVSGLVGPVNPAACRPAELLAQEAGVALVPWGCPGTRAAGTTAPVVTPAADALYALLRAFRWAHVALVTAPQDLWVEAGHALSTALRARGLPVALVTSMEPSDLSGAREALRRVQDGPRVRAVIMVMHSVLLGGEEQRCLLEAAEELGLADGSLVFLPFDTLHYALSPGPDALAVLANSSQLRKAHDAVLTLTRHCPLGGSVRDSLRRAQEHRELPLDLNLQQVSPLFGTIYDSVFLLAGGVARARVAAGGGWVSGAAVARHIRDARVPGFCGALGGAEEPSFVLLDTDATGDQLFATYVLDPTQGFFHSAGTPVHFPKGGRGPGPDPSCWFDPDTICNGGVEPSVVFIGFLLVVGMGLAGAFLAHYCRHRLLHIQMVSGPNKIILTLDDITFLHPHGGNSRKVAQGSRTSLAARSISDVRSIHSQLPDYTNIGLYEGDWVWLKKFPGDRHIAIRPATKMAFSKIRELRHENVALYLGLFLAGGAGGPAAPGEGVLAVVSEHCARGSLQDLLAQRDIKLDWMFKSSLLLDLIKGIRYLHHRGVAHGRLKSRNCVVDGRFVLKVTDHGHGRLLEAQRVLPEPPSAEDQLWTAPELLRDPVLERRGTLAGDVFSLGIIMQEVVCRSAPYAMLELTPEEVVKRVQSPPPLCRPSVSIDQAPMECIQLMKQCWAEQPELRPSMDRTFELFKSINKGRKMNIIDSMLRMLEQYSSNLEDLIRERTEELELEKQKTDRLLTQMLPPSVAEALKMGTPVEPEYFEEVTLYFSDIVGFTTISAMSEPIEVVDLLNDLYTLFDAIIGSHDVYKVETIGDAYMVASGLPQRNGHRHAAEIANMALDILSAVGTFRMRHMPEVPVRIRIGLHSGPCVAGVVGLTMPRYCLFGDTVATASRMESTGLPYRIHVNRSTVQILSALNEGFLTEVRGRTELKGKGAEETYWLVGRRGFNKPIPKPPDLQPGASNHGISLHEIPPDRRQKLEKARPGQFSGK

[2] = biological target: T2, ROS-GC1 (rod outer segment guanylate cyclase type 1), full-length recombinant (Bos taurus, UniProt P55203, A1013R/D934A); assay: biochemical
T2 construct: gene GUCY2D
T2 sequence (P55203 57-1110 D934A/A1013R): T1 sequence (P55203 57-1110 N1009A/A1013R) with D878A, A953N

Structure (SMILES): O=C(O)O [bicarbonate]
- EC50 [1]: ~25 mM
- EC50 [2]: ~30 mM
